Data on 13 compounds can be found in paper PMC5160999 (ChemMedChem, 2016).

In one experiment the test system is B. subtilis. Briefly: Synergy/antagonism two-drug combination assay, B. subtilis. It is filed as cell-based.
The next experiment concerns S. aureus. The experiment can be described thus: Synergy/antagonism two-drug combination assay, S. aureus. It is filed as cell-based.
The next experiment addresses EcUPPP (Escherichia coli, UniProt P60932). Briefly: EcUPPP inhibition, malachite-green assay. It is filed as biochemical, E. coli. The settings on record: read-out: IC50 EuUPPP.
In a further experiment the test system is A. baumannii. The experiment can be described thus: Synergy/antagonism two-drug combination assay, A. baumannii. Type of experiment: cell-based.
A further experiment relates to K. pneumoniae. Briefly: Synergy/antagonism two-drug combination assay, K. pneumoniae. It is filed as cell-based.
The subject of another experiment is P. aeruginosa. Briefly: Synergy/antagonism two-drug combination assay, P. aeruginosa. Type of experiment: cell-based.
The next experiment deals with E. coli. Briefly: Synergy/antagonism two-drug combination assay, E. coli. It is filed as cell-based.

EcUPPP, sequence (P60932 whole entry): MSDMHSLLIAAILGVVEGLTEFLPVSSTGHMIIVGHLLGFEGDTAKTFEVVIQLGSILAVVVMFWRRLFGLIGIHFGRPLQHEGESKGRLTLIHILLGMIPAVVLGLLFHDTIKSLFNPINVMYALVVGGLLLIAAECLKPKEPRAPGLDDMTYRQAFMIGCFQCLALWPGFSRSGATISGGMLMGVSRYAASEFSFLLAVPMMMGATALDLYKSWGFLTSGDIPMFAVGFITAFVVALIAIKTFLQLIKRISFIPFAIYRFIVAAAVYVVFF

A word on the MIC: it is the smallest concentration in the dilution series that meets the test's criterion for growth inhibition. As to `CN(C)[C@@H]1C(O)=C(C(N)=O)C(=O)[C@@]2(O)C(O)=C3C(=O)c4c(O)cccc4[C@@](C)(O)[C@H]3C[C@@H]12` [Tetracycline], the FIC in the experiment with B. subtilis (B. subtilis, combination of 32 with Tetracycline) came to 0.82 ± 0.21; with S. aureus (S. aureus, combination of 32 with Tetracycline), 0.83 ± 0.38. The MIC with B. subtilis (Bacillus subtilis) came to 5 µg/mL; in the experiment with S. aureus (Staphylococcus aureus), 0.5 µg/mL.

The term IC50 denotes the concentration at which inhibition is half-maximal. For Bacitracin, the FIC with B. subtilis (B. subtilis, combination of 32 with Bacitracin) was 0.12 ± 0.028; with S. aureus (S. aureus, combination of 32 with Bacitracin), 0.21 ± 0.039. Moreover, the MIC in the experiment with B. subtilis (B. subtilis, drug acting alone) came out at 200 µg/mL; in the experiment on S. aureus (S. aureus, drug acting alone), 200 µg/mL. The IC50 on EcUPPP was 32 µM.

On to `CC1(C)S[C@@H]2[C@H](NC(=O)C(C(=O)O)c3ccccc3)C(=O)N2[C@H]1C(=O)O` (stereo partly drawn) [Carbenicillin], for which the FIC is given as 0.25 ± 0.043 with B. subtilis (B. subtilis, combination of 32 with Carbenicillin) and 0.27 ± 0.015 in the experiment on S. aureus (S. aureus, combination of 32 with Carbenicillin). Besides, the figures for the MIC in the experiment with B. subtilis (Bacillus subtilis) and in the experiment on S. aureus (Staphylococcus aureus) were 5 µg/mL and 15 µg/mL, respectively.

For the compound `C[C@@H]1O[C@@H]1P(=O)(O)O` [Fosfomycin], the FIC in the experiment on B. subtilis (B. subtilis, combination of 32 with Fosfomycin) is 0.21 ± 0.025; in the experiment with S. aureus (S. aureus, combination of 32 with Fosfomycin), 0.13 ± 0.022. Further, the MIC in the experiment on B. subtilis (Bacillus subtilis) and with S. aureus (Staphylococcus aureus) was 200 µg/mL throughout.

In the case of `COc1cc(Cc2cnc(N)nc2N)cc(OC)c1OC` [Trimethoprim], the FIC in the experiment with B. subtilis (B. subtilis, combination of 32 with Trimethoprim) is listed as 0.77 ± 0.18; in the experiment with S. aureus (S. aureus, combination of 32 with Trimethoprim), 0.69 ± 0.32. Also, the MIC was found to be 0.5 µg/mL with B. subtilis (Bacillus subtilis) and 15 µg/mL in the experiment on S. aureus (Staphylococcus aureus).

Consider `O=C(N[C@H](CO)[C@H](O)c1ccc([N+](=O)[O-])cc1)C(Cl)Cl` [Chloramphenicol], for which the FIC in the experiment with B. subtilis (B. subtilis, combination of 32 with Chloramphenicol) came out at 0.55 ± 0.13; in the experiment with S. aureus (S. aureus, combination of 32 with Chloramphenicol) it was 0.71 ± 0.11. Moreover, the MIC with B. subtilis (Bacillus subtilis) was found to be 0.5 µg/mL; in the experiment on S. aureus (Staphylococcus aureus), 5 µg/mL.

On to `CO/N=C(\C(=O)N[C@@H]1C(=O)N2C(C(=O)O)=C(COC(C)=O)CS[C@H]12)c1csc(N)n1` [Cefotaxime], for which the FIC in the experiment on B. subtilis (B. subtilis, combination of 32 with Cefotaxime) is on record as 0.30 ± 0.044; in the experiment on S. aureus (S. aureus, combination of 32 with Cefotaxime), 0.21 ± 0.048. For the same compound, the MIC in the experiment on B. subtilis (Bacillus subtilis) was determined as 2.5 µg/mL; with S. aureus (Staphylococcus aureus), 2 µg/mL.

`CC1(C)S[C@@H]2[C@H](NC(=O)[C@H](N)c3ccccc3)C(=O)N2[C@H]1C(=O)O` [Ampicillin]: the FIC worked out at 0.18 ± 0.041 with B. subtilis (B. subtilis, combination of 32 with Ampicillin) and 0.30 ± 0.095 with S. aureus (S. aureus, combination of 32 with Ampicillin). Also, the MIC in the experiment on B. subtilis (Bacillus subtilis) and in the experiment on S. aureus (Staphylococcus aureus) was 0.5 µg/mL throughout.

`CN[C@H](CC(C)C)C(=O)N[C@H]1C(=O)N[C@@H](CC(N)=O)C(=O)N[C@H]2C(=O)N[C@H]3C(=O)N[C@H](C(=O)N[C@H](C(=O)O)c4cc(O)cc(O)c4-c4cc3ccc4O)[C@H](O)c3ccc(c(Cl)c3)Oc3cc2cc(c3O[C@@H]2O[C@H](CO)[C@@H](O)[C@H](O)[C@H]2O[C@H]2C[C@](C)(N)[C@H](O)[C@H](C)O2)Oc2ccc(cc2Cl)[C@H]1O` [Vancomycin]: the FIC in the experiment with B. subtilis (B. subtilis, combination of 32 with Vancomycin) came out at 0.33 ± 0.058; in the experiment with S. aureus (S. aureus, combination of 32 with Vancomycin) it was 0.19 ± 0.019. Besides, the MIC is 0.5 µg/mL with B. subtilis (Bacillus subtilis) and 1.5 µg/mL in the experiment on S. aureus (Staphylococcus aureus).

Regarding `Cc1cc(NS(=O)(=O)c2ccc(N)cc2)no1` [Sulfamethoxazole], the FIC in the experiment on B. subtilis (B. subtilis, combination of 32 with Sulfamethoxazole) is 0.87 ± 0.23; with S. aureus (S. aureus, combination of 32 with Sulfamethoxazole), 0.75 ± 0.20. For the same compound, the MIC with B. subtilis (Bacillus subtilis) and in the experiment on S. aureus (Staphylococcus aureus) was 200 µg/mL throughout.

With `CN[C@@H]1[C@H](O)[C@H](NC)[C@H]2O[C@@]3(O)C(=O)C[C@@H](C)O[C@H]3O[C@@H]2[C@H]1O` [Spectinomycin], the FIC with S. aureus (S. aureus, combination of 32 with Spectinomycin) was found to be 0.45 ± 0.091. In addition, the MIC in the experiment on S. aureus (Staphylococcus aureus) was found to be 40 µg/mL.

In the case of `NC[C@H]1O[C@H](O[C@H]2[C@H](O)[C@@H](O[C@H]3O[C@H](CO)[C@@H](O)[C@H](N)[C@H]3O)[C@H](N)C[C@@H]2N)[C@H](O)[C@@H](O)[C@@H]1O` [Kanamycin], the FIC is recorded as 0.61 ± 0.097 with B. subtilis (B. subtilis, combination of 32 with Kanamycin) and 0.81 ± 0.17 in the experiment with S. aureus (S. aureus, combination of 32 with Kanamycin). Moreover, the MIC in the experiment with B. subtilis (B. subtilis, drug acting alone) is 1.5 µg/mL; in the experiment with S. aureus (S. aureus, drug acting alone) it was 1.5 µg/mL.

For the compound `O=CN(O)CCCP(=O)(O)O` [fosmidomycin], the FIC in the experiment with B. subtilis (B. subtilis, combination of 32 with Fosmidomycin) was 0.25 ± 0.043; in the experiment on A. baumannii (A. baumannii, combination of 11 with fosmidomycin), 0.27 ± 0.057; in the experiment on K. pneumoniae (K. pneumoniae, combination of 11 with fosmidomycin), 0.12 ± 0.014; in the experiment on P. aeruginosa (P. aeruginosa, combination of 11 with fosmidomycin), 0.18 ± 0.066; with E. coli (E. coli, combination of 11 with fosmidomycin), 0.14 ± 0.13. For the same compound, the MIC in the experiment on B. subtilis (Bacillus subtilis) came out at 5 µg/mL; in the experiment with A. baumannii (Acinetobacter baumannii), 5 µg/mL; in the experiment with K. pneumoniae (Klebsiella pneumoniae), 5 µg/mL; in the experiment on P. aeruginosa (Pseudomonas aeruginosa), 3 µg/mL; in the experiment on E. coli (Escherichia coli) it was 5 µg/mL.
